Measurements published in paper PMC7576608, “Mechanisms of telomerase inhibition by oxidized and therapeutic dNTPs” (Nature Communications, 2020).

Legend:
telomerase [1] = experiment: Direct telomerase assay in the absence or presence of POT1-TPP1 (processivity R1/2); type: biochemical, human; conditions: for Effect of POT1-TPP1 on telomerase in presence of analog (in words): analog substituted for its natural dNTP
Source text: Next we tested whether the telomerase processivity factor POT1–TPP1 modulates modified dNTP inhibition of telomerase. POT1 binds to the telomeric ssDNA overhang, requiring the minimum sequence of 5′-[…]-3′[38]. Inclusion of POT1-binding partner TPP1, increases the binding affinity for telomeric DNA ten-fold compared to POT1 alone. POT1–TPP1 recruits telomerase to telomeres in vivo[39], and greatly increases telomerase repeat processivity. Therefore, we reasoned that POT1–TPP1 may overcome inhibition by the modified dNTPs and enhance telomerase processivity. We conducted telomerase extension reactions with radiolabeled primer in the presence of POT1–TPP1, and used a primer with a single mutation ([…]; underlined G to C mutation)[40] to ensure POT1–TPP1 is positioned at the 5′ portion of the primer (Fig. 5). This provides a homogenous substrate for telomerase extension.
For these reactions, we replaced the natural dNTP with the modified dNTP analog, while the other dNTPs remained at cellular relevant concentrations.
Direct telomerase assays were conducted in the absence or presence of 500 nM POT1 and 500 nM TPP1, as indicated, and 5 nM ^32P-end labeled primer ([…]) designed to position POT1 at the 10 nt primer 5′ end. Reactions contained cellular-concentration dNTPs (lanes 1 and 2), except when the natural dNTP was substituted with the oxidized dNTP a or therapeutic dNTP b analog (lanes 3–8), as indicated. […] Letters on the right indicate template base; P indicates unextended 18-mer primer. c Processivity was calculated on the basis of total products normalized to loading control. Images are representative of, and data are shown as mean ± s.d. from 3 to 5 independent experiments. Source data are provided as a Source Data file.
(§1) The reactions were started by the addition of 3 μl of immunopurified telomerase eluent, incubated at 37 °C for 1 h, then terminated with 2 μl of 0.5 mM EDTA and heat inactivated at 65 °C for 20 min. An equal volume of loading buffer (94% formamide, 0.1× TBE, 0.1% bromophenol blue, 0.1% xylene cyanol) was added to the reaction eluent. The samples were heat denatured for 10 min at 100 °C and loaded onto a 14% denaturing acrylamide gel (7 M urea, 1× TBE) and electrophoresed for 90 min at constant 38 W. Samples were imaged using a Typhoon phosphorimager (GE Healthcare). Percent primer extension was calculated with ImageQuant TL 8.2 by measuring the intensity of each product band and dividing by the total radioactivity in the lane or total products, as indicated in the figure legends.
The processivity was calculated as described[40],[67]. Repeat processivity from the direct telomerase extension assays was calculated as R1/2 (equivalent to the half-time for decay in an exponential time course), which represents the median length of DNA product formed, expressed in terms of number of telomere repeats. First, the total volume counts for each product band extend by one or more telomere repeats were obtained using Image Quant TL. The volume counts were then normalized by dividing by the number of radiolabeled guanosines incorporated into the extended products based on the number of repeats added, termed corrected volume (corr vol). The “percent left behind” (%LB) was calculated for each product band by summing the counts for that product band and for every product band below (shorter products), divided by the total counts for the lane, and then multiplied by 100. The natural log of (100−%LB) was calculated and then plotted vs. repeat number for each product length. A linear regression line was fit to the data to determine the slope of the line.

telomerase [2] = biological target: telomerase (Homo sapiens, UniProt O14746); experiment: Telomerase extension of 32P-end labeled primers with a single dNTP (percent primer extension); type: biochemical; parameters: made in house; anti-FLAG immunopurification, eluted with 3xFLAG peptide; conditions: for Chain termination after telomerase insertion (in words): end-labeled primers, single dNTP; for Percent Primer Extension: 50 μM single dNTP
Method: A chain terminating mechanism of inhibition requires that the enzyme adds the modified dNTP to a growing chain, which then blocks further synthesis. […] To test whether telomerase can incorporate other modified dNTPs, and whether the incorporation is chain terminating and/or mutagenic, we conducted direct extension assays in which we radiolabeled the primer and added increasing concentrations (5, 50, and 500 μM) of a single dNTP (Supplementary Figs. 3, 5, 6, and 7). Since modified dNTPs may prefer mispairing, we tested various primers in which the first template base was either rA3, rC1, or rU5 (primer 1, primer 2, and primer 3, respectively), and compared the percent primer extension for each dNTP at the middle 50 μM concentration (Fig. 3). Primers 1 and 2 initiate synthesis at consecutive rA3rA4 or rC1rC2 template bases, respectively, so we could examine both incorporation and extension to the next base. However, the telomerase template lacks tandem rU residues.
Fig. 3 Telomerase insertion of modified dNTPs. Telomerase reactions were conducted with 5 nM ^32P-end labeled primer a Primer 1 (TTAGGG)3, b Primer 2 (GGTTAG)3, or c Primer 3 (AGGGTT)3. Reactions contained cellular-concentration dNTPs (lane 1) or 50 μM of indicated natural dNTP (blue, lanes 2–5), oxidized dNTP (red, lanes 6–8), or therapeutic dNTP (green, lanes 9–11). Products were separated on denaturing gels. […] Letters on the right indicate the template base; P indicates unextended 18-mer primer. Graphs represent the percent of total primers extended. Images are representative of, and data are shown as mean ± s.d. from, three independent experiments. Source data are provided as a Source Data file.
as §1, with “An” for “The reactions were started by the addition of 3 μl of immunopurified telomerase eluent, incubated at 37 °C for 1 h, then terminated with 2 μl of 0.5 mM EDTA and heat inactivated at 65 °C for 20 min. An”
Telomerase reactions were conducted with 5 nM 32P-end labeled primer (a) Primer 1 (TTAGGG)3, (b) Primer 2 (GGTTAG)3, or (c and d) Primer 3 […]
(d) reactions contained 3 µg/µl RNase A. Products were separated on denaturing gels. Letters on the right indicate the template base; P indicates unextended 18-mer primer. Graphs represent the percent of total primers extended for the reactions in panels a – c from one experiment. Panel d is a representative image from three independent experiments. Source data are provided as a Source Data file. […]
Supplementary Fig 4. Time course reactions with telomerase or pol β. (a, b) Telomerase reactions were conducted with 5 nM 32P-end labeled primer (a) Primer 4 (GTTAGG)3 or (b) Primer 2 (GGTTAG)3.
Products were separated on denaturing gels. Letters on the right indicate the template base; P indicates […]
unextended 18-mer primer. […]

[3] = Primer 1 (TTAGGG)3, first template base rA3, Mean of three experiments
[4] = Primer 2 (GGTTAG)3, first template base rC1, Mean of three experiments

Sequence of telomerase (Homo sapiens, UniProt O14746) (O14746 whole entry): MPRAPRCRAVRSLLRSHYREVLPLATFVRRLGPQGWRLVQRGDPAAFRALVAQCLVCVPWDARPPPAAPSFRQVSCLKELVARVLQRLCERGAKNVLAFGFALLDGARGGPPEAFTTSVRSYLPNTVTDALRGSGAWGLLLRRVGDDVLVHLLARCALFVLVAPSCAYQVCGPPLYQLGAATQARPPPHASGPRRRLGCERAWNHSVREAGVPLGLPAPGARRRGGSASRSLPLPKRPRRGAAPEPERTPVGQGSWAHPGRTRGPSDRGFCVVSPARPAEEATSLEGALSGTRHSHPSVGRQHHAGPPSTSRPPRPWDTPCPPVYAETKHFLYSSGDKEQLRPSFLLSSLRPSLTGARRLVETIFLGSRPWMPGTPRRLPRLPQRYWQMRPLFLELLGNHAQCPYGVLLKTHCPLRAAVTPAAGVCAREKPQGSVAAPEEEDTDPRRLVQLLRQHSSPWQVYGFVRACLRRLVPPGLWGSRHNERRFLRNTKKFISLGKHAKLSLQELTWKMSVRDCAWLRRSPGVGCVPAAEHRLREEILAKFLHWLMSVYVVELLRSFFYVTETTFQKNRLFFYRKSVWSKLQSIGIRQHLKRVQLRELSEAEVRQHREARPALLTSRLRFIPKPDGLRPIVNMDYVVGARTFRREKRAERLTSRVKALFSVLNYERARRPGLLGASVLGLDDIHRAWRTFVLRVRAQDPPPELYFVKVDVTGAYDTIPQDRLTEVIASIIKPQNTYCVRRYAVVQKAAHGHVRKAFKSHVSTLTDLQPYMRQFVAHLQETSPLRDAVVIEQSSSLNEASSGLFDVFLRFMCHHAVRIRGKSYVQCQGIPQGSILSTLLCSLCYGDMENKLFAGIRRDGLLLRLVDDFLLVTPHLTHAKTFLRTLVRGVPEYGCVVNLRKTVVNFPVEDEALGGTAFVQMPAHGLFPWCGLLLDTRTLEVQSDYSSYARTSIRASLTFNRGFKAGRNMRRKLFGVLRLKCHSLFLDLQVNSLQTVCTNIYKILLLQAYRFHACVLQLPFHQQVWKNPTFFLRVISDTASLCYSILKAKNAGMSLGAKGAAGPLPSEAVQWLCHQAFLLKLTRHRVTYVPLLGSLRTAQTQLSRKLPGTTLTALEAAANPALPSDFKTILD

Compound	Effect of POT1-TPP1 on telomerase in presence of analog (in words) (telomerase [1])	% Primer Extension (telomerase [2]; Primer 1, 5µM dNTP) [%]	% Primer Extension (telomerase [2]; Primer 1, 50µM dNTP) [%]	% Primer Extension (telomerase [2]; Primer 1, 500µM dNTP) [%]	% Primer Extension (telomerase [2]; Primer 2, 5µM dNTP) [%]	% Primer Extension (telomerase [2]; Primer 2, 50µM dNTP) [%]	% Primer Extension (telomerase [2]; Primer 2, 500µM dNTP) [%]	% Primer Extension (telomerase [2]; Primer 3, 5µM dNTP) [%]	% Primer Extension (telomerase [2]; Primer 3, 50µM dNTP) [%]	% Primer Extension (telomerase [2]; Primer 3, 500µM dNTP) [%]	Chain termination after telomerase insertion (in words) (telomerase [2])	Fold enhancement of repeat processivity by POT1-TPP1 (telomerase [1]; 2-OH-dATP replaced dATP) [fold]	Percent Primer Extension (telomerase [2]; [3]) [%]	Percent Primer Extension (telomerase [2]; [4]) [%]	Fold less product than with dATP (telomerase [2]; Primer 3, insertion opposite rU5, 50 μM) [fold]	Mutagenic insertion by telomerase (in words) (telomerase [2]; misinsertion opposite rA3 and rC1)	Percent Primer Extension (telomerase [2]; Primer 3 (AGGGTT)3, first template base rU5, Mean of three experiments) [%]	Percent Primer Extension (telomerase [2]; Primer 3 (AGGGTT)3, first template base rU5, single experiments n1-n3) [%]
Nc1nc2c(ncn2C2CC(O)C(COP(=O)(O)OP(=O)(O)OP(=O)(O)O)O2)c(=S)[nH]1 (stereo not shown) [6-thio-dGTP]	failed to stimulate telomerase	0	3.68	4.47	6.19	6.25	8.35	6.75	6.04	7.79	not a telomerase chain terminator	–	–	–	–	–	–	–
Nc1nc(O)nc2c1ncn2C1CC(O)C(COP(=O)(O)OP(=O)(O)OP(=O)(O)O)O1 (stereo not shown) [2-OH-dATP]	–	0.00	1.98	6.01	0.00	1.93	3.14	8.27	15.94	46.35	–	5	2.82	1.32	2	not mutagenic	–	–
Nc1nc2c([nH]c(=O)n2C2CC(O)C(COP(=O)(O)OP(=O)(O)OP(=O)(O)O)O2)c(=O)[nH]1 (stereo not shown) [8-oxo-dGTP]	unable to overcome the chain termination	5.20	7.44	8.42	0.88	1.37	6.18	0.00	0.00	0.00	chain-terminating ability	–	10.80	0.96	–	–	0.00	0.00
